The results in this text go back to patent US7109193B2, “Tricyclic diazepines tocolytic oxytocin receptor antagonists” (Wyeth, priority 2001, dated 2006).

This assay deals with T1, human vasopressin V2 receptor subtype (Homo sapiens, UniProt P30518).
T1 construct: host or cells: CHO cells (pZeoSV vector)
Description: Vasopressin binding in Chinese Hamster Ovary cell membranes expressing human vasopressin V2 subtype receptors. The note with it: CHO cell membranes, [3H]arginine vasopressin; for IC50: values in parentheses; for inhibition at 0.1 µM: 100 nM, values without parentheses. A digest of the protocol:
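Radioligand displacement on membranes from CHO cells stably expressing human V2 receptor, 25 to 50 μg protein/well, in 50 mM Tris-HCl pH 7.4 with MgCl2, BSA and protease inhibitors. [^3H]arginine vasopressin (8 nM working solution) incubated 60 min at room temperature; bound label measured by filtration and scintillation counting.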

The structures appear in SMILES notation.

T1 sequence (P30518 whole entry): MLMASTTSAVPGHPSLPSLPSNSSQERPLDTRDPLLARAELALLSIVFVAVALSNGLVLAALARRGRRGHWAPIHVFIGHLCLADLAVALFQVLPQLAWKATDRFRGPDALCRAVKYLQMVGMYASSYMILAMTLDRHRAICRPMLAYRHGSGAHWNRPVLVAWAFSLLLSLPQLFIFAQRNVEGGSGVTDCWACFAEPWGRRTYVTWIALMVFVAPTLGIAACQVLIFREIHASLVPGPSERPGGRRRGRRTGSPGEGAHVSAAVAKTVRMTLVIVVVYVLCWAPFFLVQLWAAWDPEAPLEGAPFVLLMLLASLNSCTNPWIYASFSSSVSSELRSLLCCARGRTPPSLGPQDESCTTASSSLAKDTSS

For `COc1cc(-c2ccccc2C)c(Cl)cc1C(=O)N1Cc2ccc(C(=O)N(C)CCN(C)C)n2Cc2ccccc21` [Example 86, 10-[(6-Chloro-3-methoxy-2′-methyl[1,1′-biphenyl]-4-yl)carbonyl]-N-[2-(dimethylamino)ethyl]-N-methyl-10,11-dihydro-5H-pyrrolo[2,1-c][1,4]benzodiazepine-3-carboxamide], the IC50 worked out at 1.7 µM.

On to `COc1cccc(-c2cc(OC)c(C(=O)N3Cc4ccc(C(=O)N(C)CCN(C)C)n4Cc4ccccc43)cc2Cl)c1` [Example 87, 10-[(6-Chloro-3,3′-dimethoxy[1,1′-biphenyl]-4-yl)carbonyl]-N-[2-(dimethylamino)ethyl]-N-methyl-10,11-dihydro-5H-pyrrolo[2,1-c][1,4]benzodiazepine-3-carboxamide], for which the IC50 worked out at 2.18 µM. In the case of `COc1ccccc1-c1ccc(C(=O)N2Cc3ccc(C(=O)N(C)CCN(C)C)n3Cc3ccccc32)cc1C` [Example 88, N-[2-(Dimethylamino)ethyl]-10-[(2′-methoxy-2-methyl[1,1′-biphenyl]-4-yl)carbonyl]-N-methyl-10,11-dihydro-5H-pyrrolo[2,1-c][1,4]benzodiazepine-3-carboxamide], the inhibition at 0.1 µM was 30%. The same measure, in the same setting: under `COc1cccc(-c2ccc(C(=O)N3Cc4ccc(C(=O)N(C)CCN(C)C)n4Cc4ccccc43)cc2C)c1` [Example 89, N-[2-(Dimethylamino)ethyl]-10-[(3′-methoxy-2-methyl[1,1′-biphenyl]-4-yl)carbonyl]-N-methyl-10,11-dihydro-5H-pyrrolo[2,1-c][1,4]benzodiazepine-3-carboxamide] stands 13%. With `COc1ccccc1-c1ccc(C(=O)N2Cc3ccc(C(=O)N(C)CCN(C)C)n3Cc3ccccc32)cc1` [Example 90, N-[2-(Dimethylamino)ethyl]-10-[(2′-methoxy[1,1′-biphenyl]-4-yl)carbonyl]-N-methyl-10,11-dihydro-5H-pyrrolo[2,1-c][1,4]benzodiazepine-3-carboxamide], the inhibition at 0.1 µM turned out to be 19%. Same read-out and setting: with `Cc1ccccc1-c1ccc(C(=O)N2Cc3ccc(C(=O)N(C)CCN(C)C)n3Cc3ccccc32)cc1` [Example 91, N-[2-(Dimethylamino)ethyl]-N-methyl-10-[(2′-methyl[1,1′-biphenyl]-4-yl)carbonyl]-10,11-dihydro-5H-pyrrolo[2,1-c][1,4]benzodiazepine-3-carboxamide] the figure was 17%; with `COc1cc(C(=O)N2Cc3ccc(C(=O)N(C)CCN(C)C)n3Cc3ccccc32)ccc1-c1ccccc1C` [Example 92, N-[2-(Dimethylamino)ethyl]-10-[(2-methoxy-2′-methyl[1,1′-biphenyl]-4-yl)carbonyl]-N-methyl-10,11-dihydro-5H-pyrrolo[2,1-c][1,4]benzodiazepine-3-carboxamide], 20%; with `COc1cc(C(=O)N2Cc3ccc(C(=O)N(C)CCN(C)C)n3Cc3ccccc32)ccc1-c1cccc2ccccc12` [Example 93, N-[2-(Dimethylamino)ethyl]-10-[3-methoxy-4-(1-naphthyl)benzoyl]-N-methyl-10,11-dihydro-5H-pyrrolo[2,1-c][1,4]benzodiazepine-3-carboxamide], 36%. Regarding `COc1ccccc1-c1ccc(C(=O)N2Cc3ccc(C(=O)N(C)CCN(C)C)n3Cc3ccccc32)cc1OC` [Example 94, 10-[(2,2′-Dimethoxy[1,1′-biphenyl]-4-yl)carbonyl]-N-[2-(dimethylamino)ethyl]-N-methyl-10,11-dihydro-5H-pyrrolo[2,1-c][1,4]benzodiazepine-3-carboxamide], the inhibition at 0.1 µM was 26%.

Turning to `COc1cccc(-c2ccc(C(=O)N3Cc4ccc(C(=O)N(C)CCN(C)C)n4Cc4ccccc43)cc2OC)c1` [Example 95, 10-[(2,3′-Dimethoxy[1,1′-biphenyl]-4-yl)carbonyl]-N-[2-(dimethylamino)ethyl]-N-methyl-10,11-dihydro-5H-pyrrolo[2,1-c][1,4]benzodiazepine-3-carboxamide], the inhibition at 0.1 µM amounted to 13%. On to `CN(C)CCN(C)C(=O)c1ccc2n1Cc1ccccc1N(C(=O)c1ccc(-c3cccc4ccccc34)cc1Cl)C2` [Example 96, 10-[2-Chloro-4-(1-naphthyl)benzoyl]-N-[2-(dimethylamino)ethyl]-N-methyl-10,11-dihydro-5H-pyrrolo[2,1-c][1,4]benzodiazepine-3-carboxamide], for which the inhibition at 0.1 µM is 24%. Consider `Cc1cc(C(=O)N2Cc3ccc(C(=O)N(C)CCCN(C)C)n3Cc3ccccc32)ccc1-c1ccccc1C(F)(F)F` [Example 97, N-[3-(Dimethylamino)propyl]-N-methyl-10-{[2-methyl-2′-(trifluoromethyl)[1,1′-biphenyl]-4-yl]carbonyl}-10,11-dihydro-5H-pyrrolo[2,1-c][1,4]benzodiazepine-3-carboxamide], for which the IC50 was 2 µM. Still for that read-out and setting: with `COc1cc(-c2ccccc2C)c(Cl)cc1C(=O)N1Cc2ccc(C(=O)N(C)CCCN(C)C)n2Cc2ccccc21` [Example 98, 10-[(6-Chloro-3-methoxy-2′-methyl[1,1′-biphenyl]-4-yl)carbonyl]-N-[3-(dimethylamino)propyl]-N-methyl-10,11-dihydro-5H-pyrrolo[2,1-c][1,4]benzodiazepine-3-carboxamide] the figure was 1.03 µM. The same measure, in the same setting: under `COc1cccc(-c2cc(OC)c(C(=O)N3Cc4ccc(C(=O)N(C)CCCN(C)C)n4Cc4ccccc43)cc2Cl)c1` [Example 99, 10-[(6-Chloro-3,3′-dimethoxy[1,1′-biphenyl]-4-yl)carbonyl]-N-[3-(dimethylamino)propyl]-N-methyl-10,11-dihydro-5H-pyrrolo[2,1-c][1,4]benzodiazepine-3-carboxamide] stands 1.33 µM. In the case of `COc1ccccc1-c1ccc(C(=O)N2Cc3ccc(C(=O)N(C)CCCN(C)C)n3Cc3ccccc32)cc1C` [Example 100, N-[3-(Dimethylamino)propyl]-10-[(2′-methoxy-2-methyl[1,1′-biphenyl]-4-yl)carbonyl]-N-methyl-10,11-dihydro-5H-pyrrolo[2,1-c][1,4]benzodiazepine-3-carboxamide], the inhibition at 0.1 µM is 26%.

Regarding `Cc1ccccc1-c1ccc(C(=O)N2Cc3ccc(C(=O)N(C)CCCN(C)C)n3Cc3ccccc32)cc1C` [Example 101, N-[3-(Dimethylamino)propyl]-10-[(2,2′-dimethyl[1,1′-biphenyl]-4-yl)carbonyl]-N-methyl-10,11-dihydro-5H-pyrrolo[2,1-c][1,4]benzodiazepine-3-carboxamide], the inhibition at 0.1 µM was determined as 7%. The same measure, in the same setting: under `COc1cccc(-c2ccc(C(=O)N3Cc4ccc(C(=O)N(C)CCCN(C)C)n4Cc4ccccc43)cc2C)c1` [Example 102, N-[3-(Dimethylamino)propyl]-10-[(3′-methoxy-2-methyl[1,1′-biphenyl]-4-yl)carbonyl]-N-methyl-10,11-dihydro-5H-pyrrolo[2,1-c][1,4]benzodiazepine-3-carboxamide] stands 18%.

Regarding `COc1ccccc1-c1ccc(C(=O)N2Cc3ccc(C(=O)N(C)CCCN(C)C)n3Cc3ccccc32)cc1` [Example 103, N-[3-(Dimethylamino)propyl]-10-[(2′-methoxy[1,1′-biphenyl]-4-yl)carbonyl]-N-methyl-10,11-dihydro-5H-pyrrolo[2,1-c][1,4]benzodiazepine-3-carboxamide], the inhibition at 0.1 µM was 11%. `Cc1ccccc1-c1ccc(C(=O)N2Cc3ccc(C(=O)N(C)CCCN(C)C)n3Cc3ccccc32)cc1` [Example 104, N-[3-(Dimethylamino)propyl]-N-methyl-10-[(2′-methyl[1,1′-biphenyl]-4-yl)carbonyl]-10,11-dihydro-5H-pyrrolo[2,1-c][1,4]benzodiazepine-3-carboxamide]: the inhibition at 0.1 µM came out at 20%. Same read-out and setting: with `COc1cc(C(=O)N2Cc3ccc(C(=O)N(C)CCCN(C)C)n3Cc3ccccc32)ccc1-c1ccccc1C` [Example 105, N-[3-(Dimethylamino)propyl]-10-[(2-methoxy-2′-methyl[1,1′-biphenyl]-4-yl)carbonyl]-N-methyl-10,11-dihydro-5H-pyrrolo[2,1-c][1,4]benzodiazepine-3-carboxamide] the figure was 18%; with `COc1cc(C(=O)N2Cc3ccc(C(=O)N(C)CCCN(C)C)n3Cc3ccccc32)ccc1-c1cccc2ccccc12` [Example 106, N-[3-(Dimethylamino)propyl]-10-[3-methoxy-4-(1-naphthyl)benzoyl]-N-methyl-10,11-dihydro-5H-pyrrolo[2,1-c][1,4]benzodiazepine-3-carboxamide], 34%. Turning to `COc1cc(-c2ccccc2C)c(Cl)cc1C(=O)N1Cc2ccc(C(=O)N3CCC(N4CCCCC4)CC3)n2Cc2ccccc21` [Example 110, {10-[(6-Chloro-3-methoxy-2′-methyl[1,1′-biphenyl]-4-yl)carbonyl]-10,11-dihydro-5H-pyrrolo[2,1-c][1,4]benzodiazepin-3-yl}[4-(1-piperidinyl)-1-piperidinyl]methanone], the IC50 stood at 0.788 µM. Consider `COc1ccccc1-c1ccc(C(=O)N2Cc3ccc(C(=O)N4CCC(N5CCCCC5)CC4)n3Cc3ccccc32)cc1` [Example 111, {10-[(2′-Methoxy[1,1′-biphenyl]-4-yl)carbonyl]-10,11-dihydro-5H-pyrrolo[2,1-c][1,4]benzodiazepin-3-yl}[4-(1-piperidinyl)-1-piperidinyl]methanone], for which the IC50 amounted to 0.772 µM. Same read-out and setting: with `COc1cc(-c2ccccc2C)c(Cl)cc1C(=O)N1Cc2ccc(C(=O)N3CCC(N4CCCC4)CC3)n2Cc2ccccc21` [Example 136, {10-[(6-Chloro-3-methoxy-2′-methyl[1,1′-biphenyl]-4-yl)carbonyl]-10,11-dihydro-5H-pyrrolo[2,1-c][1,4]benzodiazepin-3-yl}[4-(1-pyrrolidinyl)-1-piperidinyl]methanone] the figure was 0.597 µM; with `COc1ccccc1-c1ccc(C(=O)N2Cc3ccc(C(=O)N4CCN(CCN(C)C)CC4)n3Cc3ccccc32)cc1C` [Example 195, {4-[2-(Dimethylamino)ethyl]-1-piperazinyl}{10-[(2′-methoxy-2-methyl[1,1′-biphenyl]-4-yl)carbonyl]-10,11-dihydro-5H-pyrrolo[2,1-c][1,4]benzodiazepin-3-yl}methanone], 0.298 µM.
